The NIST ThermoML archive (doi:10.1016/j.jct.2008.07.009)
± gives the expanded uncertainty stated by the source.

Details: 101.33 kPa, Liquid, Vibrating tube method

## Cc1cc(C)cc(C)c1 [1,3,5-trimethylbenzene]
293.15 K
  mass density: 865.1 ± 6 kg/m3
303.15 K
  mass density: 856.9 ± 6 kg/m3
313.15 K
  mass density: 842.8 ± 6 kg/m3
323.15 K
  mass density: 834.7 ± 6 kg/m3
333.15 K
  mass density: 826.6 ± 6 kg/m3
343.15 K
  mass density: 818.5 ± 6 kg/m3

## CC(=O)N1CCOCC1 [4-acetylmorpholine]
293.15 K
  mass density: 1113.8 ± 6.1 kg/m3
303.15 K
  mass density: 1105.9 ± 6.1 kg/m3
313.15 K
  mass density: 1097.3 ± 6.1 kg/m3
323.15 K
  mass density: 1088.7 ± 6.1 kg/m3
333.15 K
  mass density: 1080.1 ± 6.1 kg/m3
343.15 K
  mass density: 1071.5 ± 6.1 kg/m3

## c1ccccc1 [benzene]
293.15 K
  mass density: 878.9 ± 6 kg/m3
303.15 K
  mass density: 868.2 ± 6 kg/m3
313.15 K
  mass density: 857.4 ± 6 kg/m3
323.15 K
  mass density: 846.5 ± 6 kg/m3
333.15 K
  mass density: 835.7 ± 6 kg/m3
343.15 K
  mass density: 824.7 ± 6 kg/m3

## CCc1ccccc1 [ethylbenzene]
293.15 K
  mass density: 867.2 ± 6 kg/m3
303.15 K
  mass density: 858.3 ± 6 kg/m3
313.15 K
  mass density: 849.3 ± 6 kg/m3
323.15 K
  mass density: 840.3 ± 6 kg/m3
333.15 K
  mass density: 831.2 ± 6 kg/m3
343.15 K
  mass density: 822.1 ± 6 kg/m3

## Cc1ccccc1 [toluene]
293.15 K
  mass density: 866.8 ± 6 kg/m3
303.15 K
  mass density: 857.5 ± 6 kg/m3
313.15 K
  mass density: 848.8 ± 6 kg/m3
323.15 K
  mass density: 838.9 ± 6 kg/m3
333.15 K
  mass density: 829.6 ± 6 kg/m3
343.15 K
  mass density: 820.2 ± 6 kg/m3
